Values of other authors in patent US20070253988A1, “Methods for peeling skin” (L'OREAL, priority 2006, published 2007).

Conditions: approximately 20° C., concentration of 0.1 M

SMILES	pKa
NC(=O)CNCCS(=O)(=O)O [N-(2-acetamido)-2-aminoethanesulfonic acid]	6.88
O=S(=O)(O)CCN1CCN(CCS(=O)(=O)O)CC1 [piperazine-N,N′-bis[2-ethanesulfonic]acid]	6.82
O=S(=O)(O)CCN1CCN(CCO)CC1 [N-2-hydroxyethylpiperazine-N′-2-ethanesulfonic acid]	7.55
O=S(=O)(O)CCN(CCO)CCO [N,N-bis[2-hydroxyethyl]-2-aminoethanesulfonic acid]	7.17
